Where “and” joins values, the source holds several entries; their conditions need not be identical. Equal entries are not always repeated. Inconclusive results and toxic doses are left out.
Test system: P388 leukemia ip, CD2F1 mice, survival T/C
Experiment: NCI In Vivo Anticancer Drug Screen. Data for tumor model P388 Leukemia (intraperitoneal) in CD2F1 (CDF1) mice
Conditions: endpoint: median survival time, higher = longer survival
How it was run: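 Mice carrying the transplanted tumor received test compound or vehicle. Survival was recorded in each group, and the value is the treated-group measurement divided by that of the vehicle-treated control group.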

[1] = dose: 50.0 mg/kg/injection, schedule: Q01DX005 (ip), vehicle: Klucel (hydroxypropylcellulose) (HPC)
[2] = dose: 100.0 mg/kg/injection, schedule: Q01DX005 (ip), vehicle: Klucel (hydroxypropylcellulose) (HPC)
[3] = dose: 50.0 mg/kg/injection, schedule: Q01DX005 (ip), vehicle: saline with Tween-80
[4] = dose: 100.0 mg/kg/injection, schedule: Q01DX005 (ip), vehicle: saline with Tween-80
[5] = dose: 200.0 mg/kg/injection, schedule: Q01DX005 (ip), vehicle: saline with Tween-80
[6] = dose: 50.0 mg/kg/injection, schedule: Q01DX009 (ip), vehicle: saline with Tween-80
[7] = dose: 100.0 mg/kg/injection, schedule: Q01DX009 (ip), vehicle: saline with Tween-80
[8] = dose: 1.87 mg/kg/injection, schedule: Q01DX005 (ip), vehicle: saline with Tween-80
[9] = dose: 7.5 mg/kg/injection, schedule: Q01DX005 (ip), vehicle: saline with Tween-80
[10] = dose: 60.0 mg/kg/injection, schedule: Q01DX005 (ip), vehicle: saline with Tween-80
[11] = dose: 120.0 mg/kg/injection, schedule: Q01DX005 (ip), vehicle: saline with Tween-80
[12] = dose: 240.0 mg/kg/injection, schedule: Q01DX005 (ip), vehicle: saline with Tween-80
[13] = dose: 100.0 mg/kg/injection, schedule: Q04DX003 (ip), vehicle: saline with Tween-80
[14] = dose: 200.0 mg/kg/injection, schedule: Q04DX003 (ip), vehicle: saline with Tween-80
[15] = dose: 400.0 mg/kg/injection, schedule: Q04DX003 (ip), vehicle: saline with Tween-80
[16] = dose: 200.0 mg/kg/injection, schedule: Q01DX009 (ip), vehicle: saline with Tween-80
[17] = dose: 6.25 mg/kg/injection, schedule: Q01DX009 (ip), vehicle: saline with Tween-80
[18] = dose: 12.5 mg/kg/injection, schedule: Q01DX009 (ip), vehicle: saline with Tween-80
[19] = dose: 12.5 mg/kg/injection, schedule: Q01DX009 (ip), vehicle: saline
[20] = dose: 25.0 mg/kg/injection, schedule: Q01DX009 (ip), vehicle: saline
[21] = dose: 50.0 mg/kg/injection, schedule: Q01DX009 (ip), vehicle: saline
[22] = dose: 25.0 mg/kg/injection, schedule: Q01DX005 (ip), vehicle: Klucel (hydroxypropylcellulose) (HPC)
[23] = dose: 200.0 mg/kg/injection, schedule: Q01DX005 (ip), vehicle: Klucel (hydroxypropylcellulose) (HPC)
[24] = dose: 25.0 mg/kg/injection, schedule: Q01DX009 (ip), vehicle: other

CC1C(O)C(O)CC2COCC21 (configuration not stated)
T/C (dose: 37.5 mg/kg/injection, schedule: Q01DX001 (ip), vehicle: saline): 100 % of control | T/C (dose: 75.0 mg/kg/injection, schedule: Q01DX001 (ip), vehicle: saline): 100 % of control | T/C (dose: 150.0 mg/kg/injection, schedule: Q01DX001 (ip), vehicle: saline): 104 % of control

CC(=O)NCCSSCCCCSSCCNC(C)=O
T/C [1]: 112 % of control | T/C [2]: 112 % of control

C/C(=N\NC(=S)N1CCC(C2CCN(C(=S)N/N=C(\C)c3ccccn3)CC2)CC1)c1ccccn1
T/C [3]: 112 % of control and 97 % of control | T/C [4]: 114 % of control and 122 % of control | T/C [5]: 118 % of control | T/C (dose: 400.0 mg/kg/injection, schedule: Q01DX005 (ip), vehicle: saline with Tween-80): 120 % of control

Fc1ccc(NC(=S)NC2CC2)c(F)c1
T/C [6]: 104 % of control | T/C [7]: 104 % of control

C1=C(c2ccccc2)C(=Nc2ccccc2)SC1=Nc1ccccc1
T/C [8]: 113 % of control | T/C [9]: 107 % of control | T/C (dose: 30.0 mg/kg/injection, schedule: Q01DX005 (ip), vehicle: saline with Tween-80): 100 % of control | T/C [10]: 120 % of control | T/C [11]: 122 % of control | T/C [12]: 120 % of control

Nc1nc(N)c2nc(CNc3ccc(C(=O)NC(CCC(=O)O)C(=O)O)cc3F)cnc2n1 (configuration not stated)
T/C [8]: 163 % of control | T/C [9]: 183 % of control

CC1=NS(C)(=O)=c2ccccc2=N1 (configuration not stated)
T/C [13]: 105 % of control | T/C [14]: 105 % of control | T/C [15]: 106 % of control

CCOC(=O)c1ccc(NC(=NC)c2ccccc2)cc1
T/C [6]: 108 % of control | T/C [7]: 105 % of control | T/C [16]: 97 % of control

COC(=O)/C(C#N)=C1\C(=O)OCC1(C)C
T/C (dose: 100.0 mg/kg/injection, schedule: Q04DX003 (ip), vehicle: saline): 104 % of control | T/C (dose: 200.0 mg/kg/injection, schedule: Q04DX003 (ip), vehicle: saline): 94 % of control | T/C (dose: 400.0 mg/kg/injection, schedule: Q04DX003 (ip), vehicle: saline): 98 % of control

O=[N+]([O-])c1c(Sc2ncccn2)ncnc1Sc1ncccn1
T/C (dose: 3.12 mg/kg/injection, schedule: Q01DX009 (ip), vehicle: saline with Tween-80): 105 % of control | T/C [17]: 115 % of control | T/C [18]: 113 % of control | T/C [19]: 114 % of control | T/C [20]: 114 % of control | T/C [21]: 108 % of control

ON=C1c2cc(Cl)ccc2-c2ccc(Cl)cc21
T/C (dose: 6.25 mg/kg/injection, schedule: Q01DX009 (ip), vehicle: saline): 100 % of control | T/C [19]: 97 % of control | T/C [20]: 94 % of control | T/C [21]: 90 % of control

COC1CC(OC2CCC3(C)C(=CCC4C3C(OC(C)=O)C(OC(=O)CC(C)C)C3(C)C(C(C)=O)CCC43O)C2)OC(C)C1OC1CC(OC)C(OC2CC(OC)C(OC3OC(C)C(OC4OC(CO)C(O)C(O)C4O)C(OC)C3O)C(C)O2)C(C)O1 (configuration not stated)
T/C (dose: 4.13 mg/kg/injection, schedule: Q01DX005 (ip), vehicle: Klucel (hydroxypropylcellulose) (HPC)): 95 % of control | T/C (dose: 8.25 mg/kg/injection, schedule: Q01DX005 (ip), vehicle: Klucel (hydroxypropylcellulose) (HPC)): 101 % of control | T/C (dose: 16.5 mg/kg/injection, schedule: Q01DX005 (ip), vehicle: Klucel (hydroxypropylcellulose) (HPC)): 101 % of control

O=C1CSC(c2c(F)cccc2Cl)N1c1cnccn1 (configuration not stated)
T/C [22]: 99 % of control | T/C [1]: 102 % of control | T/C [2]: 101 % of control | T/C [23]: 106 % of control

COc1ccc(-c2cncnc2N)cc1OC
T/C (dose: 50.0 mg/kg/injection, schedule: Q01DX009 (ip), vehicle: Klucel (hydroxypropylcellulose) (HPC)): 95 % of control | T/C (dose: 100.0 mg/kg/injection, schedule: Q01DX009 (ip), vehicle: Klucel (hydroxypropylcellulose) (HPC)): 97 % of control | T/C (dose: 200.0 mg/kg/injection, schedule: Q01DX009 (ip), vehicle: Klucel (hydroxypropylcellulose) (HPC)): 89 % of control

c1ccc(C2=NN=C(c3ccccc3)N(c3ccccc3)N2)cc1
T/C [3]: 105 % of control | T/C [4]: 97 % of control | T/C [5]: 97 % of control

COC1=CC(=[O+]C)/C(=C/c2c(OC)cc(OC)cc2OC)C(OC)=C1
T/C [6]: 94 % of control | T/C [7]: 86 % of control | T/C [16]: 86 % of control

C[C@]12CCC(=O)C=C1CC[C@@H]1[C@@H]2[C@@H](O)C[C@@]2(C)[C@H]1CC[C@]2(O)C(=O)COC(=O)COCC(=O)O
T/C [13]: 104 % of control | T/C [14]: 100 % of control | T/C [15]: 116 % of control

COCCCn1c(C(Cl)(Cl)Cl)nn2c(=O)c3ccccc3nc2c1=O
T/C [17]: 96 % of control | T/C [18]: 91 % of control | T/C (dose: 25.0 mg/kg/injection, schedule: Q01DX009 (ip), vehicle: saline with Tween-80): 100 % of control

CC(=O)C(=Cc1ccc(OC2OC(CO)C(O)C(O)C2O)cc1)C(C)=O (configuration not stated)
T/C (dose: 60.0 mg/kg/injection, schedule: Q01DX005 (ip), vehicle: saline): 100 % of control | T/C (dose: 120.0 mg/kg/injection, schedule: Q01DX005 (ip), vehicle: saline): 100 % of control | T/C (dose: 240.0 mg/kg/injection, schedule: Q01DX005 (ip), vehicle: saline): 98 % of control

COn1c2ccccc2c2c1cc1ccccc1[n+]2[O-]
T/C (dose: 12.5 mg/kg/injection, schedule: Q01DX005 (ip), vehicle: Klucel (hydroxypropylcellulose) (HPC)): 113 % of control | T/C [22]: 111 % of control | T/C [1]: 106 % of control | T/C [2]: 90 % of control | T/C [23]: 94 % of control

Nc1nc(N)c(N)c(N)n1
T/C (dose: 50.0 mg/kg/injection, schedule: Q04DX003 (ip), vehicle: saline with Tween-80): 98 % of control | T/C [13]: 104 % of control | T/C [14]: 97 % of control | T/C [15]: 96 % of control

Cc1ccc2[nH]c(C)c(C(=O)c3ccncc3)c2c1
T/C (dose: 100.0 mg/kg/injection, schedule: Q04DX003 (ip), vehicle: Klucel (hydroxypropylcellulose) (HPC)): 100 % of control | T/C (dose: 200.0 mg/kg/injection, schedule: Q04DX003 (ip), vehicle: Klucel (hydroxypropylcellulose) (HPC)): 100 % of control | T/C (dose: 400.0 mg/kg/injection, schedule: Q04DX003 (ip), vehicle: Klucel (hydroxypropylcellulose) (HPC)): 107 % of control

CC1=C(CO)C(=O)OC(C(C)C2CCC3C4CC5OC56C(O)C(N5CC5(C)C)CC(=O)C6(C)C4CCC23C)C1 (configuration not stated)
T/C (dose: 8.75 mg/kg/injection, schedule: Q01DX005 (ip), vehicle: Klucel (hydroxypropylcellulose) (HPC)): 108 % of control | T/C (dose: 17.5 mg/kg/injection, schedule: Q01DX005 (ip), vehicle: Klucel (hydroxypropylcellulose) (HPC)): 99 % of control | T/C (dose: 35.0 mg/kg/injection, schedule: Q01DX005 (ip), vehicle: Klucel (hydroxypropylcellulose) (HPC)): 99 % of control | T/C (dose: 70.0 mg/kg/injection, schedule: Q01DX005 (ip), vehicle: Klucel (hydroxypropylcellulose) (HPC)): 108 % of control | T/C (dose: 140.0 mg/kg/injection, schedule: Q01DX005 (ip), vehicle: Klucel (hydroxypropylcellulose) (HPC)): 105 % of control

Cc1c(O)c2c(c(O)c1Cc1cccc(C#N)c1)C(=O)c1ccccc1C2=O
T/C [24]: 89 % of control

Clc1ccc(C2=NON(c3ncccn3)C3N=CC=CN23)cc1 (configuration not stated)
T/C [10]: 87 % of control | T/C [11]: 91 % of control | T/C [12]: 99 % of control

COc1ccc(C(CCOS(=O)(=O)c2ccc(Br)cc2)(c2ccc(OC)cc2)c2ccc(OC)cc2)cc1
T/C [10]: 93 % of control | T/C [11]: 93 % of control | T/C [12]: 87 % of control

CC(=O)N1CCc2cc(C(C)C)ccc21
T/C [24]: 97 % of control | T/C (dose: 50.0 mg/kg/injection, schedule: Q01DX009 (ip), vehicle: other): 97 % of control | T/C (dose: 100.0 mg/kg/injection, schedule: Q01DX009 (ip), vehicle: other): 91 % of control | T/C (dose: 200.0 mg/kg/injection, schedule: Q01DX009 (ip), vehicle: other): 103 % of control | T/C (dose: 400.0 mg/kg/injection, schedule: Q01DX009 (ip), vehicle: other): 88 % of control

Source: PubChem BioAssay AID330 (DTP/NCI, 2004)
